This note sets out measurements from US9518240B2, “Process for the treatment of liquefied hydrocarbons using 3-(piperazine-1-YL)propane-1,2-diol compounds” (Dow Global Technologies LLC, priority 2012, dated 2016).

The term pKa denotes the pH at which an ionisable group is half protonated. High values mean a group that holds its proton tightly, low ones a group that gives up its proton readily.

A short description of series [1]: pKa by automated Mettler Toledo titration. The settings on record: water (50 weight % aqueous amine solution).
The conditions of series [2]: heptane 10 g, toluene 0.1 g (internal standard), amine 2.5 g; mixed at 20° C. for 1 hour, decanted 15 minutes; average of three injections.
Method: A solution of heptane (10 g), toluene (0.1 g) and the tested amine (2.5 g) are mixed at 20° C. for 1 hour. The mixture is decanted for 15 minutes and the neat heptane phase is analyzed by gas chromatography using toluene as internal standard.

The molecule `OCC(O)CN1CCNCC1` (stereo not drawn) [PPD, 3-(piperazine-1-YL)propane-1,2-diol] displayed a pKa in series [1] of 9.5. The “area counts (averaged GC peak area of tested amine in neat heptane phase)” value in series [2] worked out at 132 area counts. For the molecule `C1CNCCN1` [Piperazine], the “area counts (averaged GC peak area of tested amine in neat heptane phase)” value in series [2] is 13748 area counts.
